Measurements taken from the supplement of paper PMC10307832.

Experiments:
Experiment in all cases: relative viability (nuclei count vs DMSO), 5 days (fraction); higher = more cells survive
[1] = compound: CNC(=O)c1ccccc1Sc1ccc2c(/C=C/c3ccccn3)n[nH]c2c1 [Axitinib] + Cc1nc(Nc2ncc(C(=O)Nc3c(C)cccc3Cl)s2)cc(N2CCN(CCO)CC2)n1 [Dasatinib] (partner 0.075 µM)
How it was run: (§1)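 Lung cancer cell lines were seeded in 1536-well plates and dosed by pin tool the next day, with either a single drug or a fixed anchor-drug dose combined with five library-drug doses (not always all listed) spaced in √10 steps. Five days later, one step fixed the cells and stained their nuclei (final 0.05% Triton X-100, 1% formaldehyde, 1 ug/ml Hoechst), and nuclei were counted on 4× images. Relative viability is the nuclei count in treated wells divided by the count in vehicle wells, and each value is the median of duplicate plates.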

[2] = compound: CC1=CC=C(C=C1)C(=O)CN2C3=C(CCCC3)SC2=N [Pifithrin_alpha] + O=C(c1cc(Cc2n[nH]c(=O)c3ccccc23)ccc1F)N1CCN(C(=O)C2CC2)CC1 [Olaparib] (partner 8 µM)
How it was run: as §1

[3] = compound: CNC(=O)c1ccccc1Sc1ccc2c(/C=C/c3ccccn3)n[nH]c2c1 [Axitinib] + NC(=O)Nc1cc(-c2cccc(F)c2)sc1C(=O)N[C@H]1CCCNC1 [AZD7762] (partner 0.2 µM)
How it was run: as §1

[4] = compound: CNC(=O)c1ccccc1Sc1ccc2c(/C=C/c3ccccn3)n[nH]c2c1 [Axitinib] + CS(=O)(=O)N1CCN(Cc2cc3nc(-c4cccc5[nH]ncc45)nc(N4CCOCC4)c3s2)CC1 [Pictilisib] (partner 1 µM)
How it was run: as §1

How did the relative viability ([1]; first compound 0.005 µM) turn out when NCI-H322M was run?
Its relative viability is 0.253.

What about the relative viability ([1]; first compound 0.01581 µM) of the same cell line?
The relative viability was 0.231.

And the relative viability ([1]; first compound 0.05 µM)?
Its relative viability is 0.239.

What about the relative viability ([1]; first compound 0.1581 µM) of the same cell line?
The relative viability was 0.259.

And the relative viability ([1]; first compound 0.5 µM)?
The relative viability was 0.246.

And the relative viability ([2]; first compound 1 µM)?
The relative viability was 0.74.

And the relative viability ([2]; first compound 3.162 µM)?
Its relative viability is 0.715.

What about the relative viability ([2]; first compound 10 µM) of the same cell line?
Its relative viability is 0.723.

What about the relative viability ([2]; first compound 31.62 µM) of the same cell line?
The relative viability was 0.468.

What about the relative viability ([2]; first compound 100 µM) of the same cell line?
Its relative viability is 0.559.

What about the relative viability ([3]; first compound 0.005 µM) of the same cell line?
Its relative viability is 0.564.

And the relative viability ([3]; first compound 0.01581 µM)?
Its relative viability is 0.525.

What about the relative viability ([3]; first compound 0.05 µM) of the same cell line?
Its relative viability is 0.579.

And the relative viability ([3]; first compound 0.1581 µM)?
The relative viability was 0.548.

And the relative viability ([3]; first compound 0.5 µM)?
The relative viability was 0.612.

What about the relative viability ([4]; first compound 0.005 µM) of the same cell line?
Its relative viability is 0.571.

And the relative viability ([4]; first compound 0.01581 µM)?
The relative viability was 0.496.

What about the relative viability ([4]; first compound 0.05 µM) of the same cell line?
The relative viability was 0.474.

What about the relative viability ([4]; first compound 0.1581 µM) of the same cell line?
The relative viability was 0.472.

And the relative viability ([4]; first compound 0.5 µM)?
The relative viability was 0.505.

For NCI-H358, which relative viability ([1]; first compound 0.005 µM) is on record?
The relative viability was 0.116.

What about the relative viability ([1]; first compound 0.01581 µM) of the same cell line?
The relative viability was 0.153.

And the relative viability ([1]; first compound 0.05 µM)?
The relative viability was 0.155.

What about the relative viability ([1]; first compound 0.1581 µM) of the same cell line?
The relative viability was 0.142.

And the relative viability ([1]; first compound 0.5 µM)?
Its relative viability is 0.146.

What about the relative viability ([2]; first compound 1 µM) of the same cell line?
The relative viability was 0.628.

What about the relative viability ([2]; first compound 3.162 µM) of the same cell line?
The relative viability was 0.559.

And the relative viability ([2]; first compound 10 µM)?
Its relative viability is 0.459.

What about the relative viability ([2]; first compound 31.62 µM) of the same cell line?
The relative viability was 0.252.

And the relative viability ([2]; first compound 100 µM)?
The relative viability was 0.555.

And the relative viability ([3]; first compound 0.005 µM)?
Its relative viability is 0.529.

What about the relative viability ([3]; first compound 0.01581 µM) of the same cell line?
The relative viability was 0.509.

What about the relative viability ([3]; first compound 0.05 µM) of the same cell line?
The relative viability was 0.626.

And the relative viability ([3]; first compound 0.1581 µM)?
Its relative viability is 0.512.

And the relative viability ([3]; first compound 0.5 µM)?
The relative viability was 0.635.

What about the relative viability ([4]; first compound 0.005 µM) of the same cell line?
The relative viability was 0.369.

And the relative viability ([4]; first compound 0.01581 µM)?
The relative viability was 0.309.

And the relative viability ([4]; first compound 0.05 µM)?
The relative viability was 0.33.

What about the relative viability ([4]; first compound 0.1581 µM) of the same cell line?
The relative viability was 0.336.

And the relative viability ([4]; first compound 0.5 µM)?
Its relative viability is 0.369.

Which relative viability ([1]; first compound 0.005 µM) does the source give for NCI-H441 here?
Its relative viability is 0.592.

What about the relative viability ([1]; first compound 0.01581 µM) of the same cell line?
Its relative viability is 0.722.

What about the relative viability ([1]; first compound 0.05 µM) of the same cell line?
Its relative viability is 0.595.

What about the relative viability ([1]; first compound 0.1581 µM) of the same cell line?
Its relative viability is 0.575.

What about the relative viability ([1]; first compound 0.5 µM) of the same cell line?
The relative viability was 0.604.

And the relative viability ([2]; first compound 1 µM)?
The relative viability was 0.608.

What about the relative viability ([2]; first compound 3.162 µM) of the same cell line?
Its relative viability is 0.673.

And the relative viability ([2]; first compound 10 µM)?
Its relative viability is 0.468.

What about the relative viability ([2]; first compound 100 µM) of the same cell line?
The relative viability was 0.542.

And the relative viability ([3]; first compound 0.005 µM)?
The relative viability was 1.08.

And the relative viability ([3]; first compound 0.01581 µM)?
Its relative viability is 1.02.

What about the relative viability ([3]; first compound 0.05 µM) of the same cell line?
The relative viability was 1.24.

What about the relative viability ([3]; first compound 0.1581 µM) of the same cell line?
Its relative viability is 1.09.

What about the relative viability ([3]; first compound 0.5 µM) of the same cell line?
Its relative viability is 1.59.

And the relative viability ([4]; first compound 0.005 µM)?
Its relative viability is 0.456.

And the relative viability ([4]; first compound 0.01581 µM)?
The relative viability was 0.563.

And the relative viability ([4]; first compound 0.05 µM)?
Its relative viability is 0.413.

What about the relative viability ([4]; first compound 0.1581 µM) of the same cell line?
The relative viability was 0.571.

What about the relative viability ([4]; first compound 0.5 µM) of the same cell line?
Its relative viability is 0.542.

NCI-H460 was tested. Which relative viability ([1]; first compound 0.005 µM) did it give?
The relative viability was 0.429.

And the relative viability ([1]; first compound 0.01581 µM)?
The relative viability was 0.515.

And the relative viability ([1]; first compound 0.05 µM)?
The relative viability was 0.607.

And the relative viability ([1]; first compound 0.1581 µM)?
Its relative viability is 0.49.

And the relative viability ([1]; first compound 0.5 µM)?
Its relative viability is 0.441.

And the relative viability ([2]; first compound 1 µM)?
The relative viability was 0.456.

What about the relative viability ([2]; first compound 3.162 µM) of the same cell line?
Its relative viability is 0.343.

And the relative viability ([2]; first compound 10 µM)?
Its relative viability is 0.257.

And the relative viability ([2]; first compound 100 µM)?
Its relative viability is 0.21.

What about the relative viability ([3]; first compound 0.005 µM) of the same cell line?
The relative viability was 0.693.

What about the relative viability ([3]; first compound 0.01581 µM) of the same cell line?
The relative viability was 0.576.

What about the relative viability ([3]; first compound 0.05 µM) of the same cell line?
The relative viability was 0.757.

And the relative viability ([3]; first compound 0.1581 µM)?
The relative viability was 0.636.

What about the relative viability ([3]; first compound 0.5 µM) of the same cell line?
Its relative viability is 1.02.

And the relative viability ([4]; first compound 0.005 µM)?
Its relative viability is 0.403.

And the relative viability ([4]; first compound 0.01581 µM)?
The relative viability was 0.443.

And the relative viability ([4]; first compound 0.05 µM)?
The relative viability was 0.333.

And the relative viability ([4]; first compound 0.1581 µM)?
Its relative viability is 0.323.

And the relative viability ([4]; first compound 0.5 µM)?
Its relative viability is 0.327.

With NCI-H596 as the cell line, how does the relative viability ([1]; first compound 0.005 µM) read?
The relative viability was 0.519.

And the relative viability ([1]; first compound 0.01581 µM)?
The relative viability was 0.477.

What about the relative viability ([1]; first compound 0.05 µM) of the same cell line?
The relative viability was 0.653.

And the relative viability ([1]; first compound 0.1581 µM)?
Its relative viability is 0.569.

What about the relative viability ([1]; first compound 0.5 µM) of the same cell line?
The relative viability was 0.507.

And the relative viability ([2]; first compound 1 µM)?
The relative viability was 0.634.

And the relative viability ([2]; first compound 3.162 µM)?
Its relative viability is 0.589.

And the relative viability ([2]; first compound 10 µM)?
Its relative viability is 0.679.

And the relative viability ([2]; first compound 31.62 µM)?
Its relative viability is 0.492.

What about the relative viability ([2]; first compound 100 µM) of the same cell line?
Its relative viability is 0.513.

What about the relative viability ([3]; first compound 0.005 µM) of the same cell line?
The relative viability was 1.14.

And the relative viability ([3]; first compound 0.01581 µM)?
The relative viability was 0.978.

What about the relative viability ([3]; first compound 0.05 µM) of the same cell line?
The relative viability was 1.12.

And the relative viability ([3]; first compound 0.1581 µM)?
Its relative viability is 1.12.

And the relative viability ([3]; first compound 0.5 µM)?
The relative viability was 0.943.

What about the relative viability ([4]; first compound 0.005 µM) of the same cell line?
Its relative viability is 0.352.

What about the relative viability ([4]; first compound 0.01581 µM) of the same cell line?
Its relative viability is 0.359.

And the relative viability ([4]; first compound 0.05 µM)?
Its relative viability is 0.417.

And the relative viability ([4]; first compound 0.1581 µM)?
Its relative viability is 0.379.

And the relative viability ([4]; first compound 0.5 µM)?
The relative viability was 0.364.

Which relative viability ([1]; first compound 0.005 µM) does the source give for NCI-H647 here?
Its relative viability is 0.206.

And the relative viability ([1]; first compound 0.01581 µM)?
Its relative viability is 0.182.

What about the relative viability ([1]; first compound 0.05 µM) of the same cell line?
Its relative viability is 0.194.

And the relative viability ([1]; first compound 0.1581 µM)?
The relative viability was 0.18.

And the relative viability ([1]; first compound 0.5 µM)?
Its relative viability is 0.126.

And the relative viability ([2]; first compound 1 µM)?
The relative viability was 0.531.

What about the relative viability ([2]; first compound 3.162 µM) of the same cell line?
Its relative viability is 0.44.

What about the relative viability ([2]; first compound 10 µM) of the same cell line?
The relative viability was 0.531.

And the relative viability ([2]; first compound 31.62 µM)?
Its relative viability is 0.217.

What about the relative viability ([2]; first compound 100 µM) of the same cell line?
The relative viability was 0.492.

And the relative viability ([3]; first compound 0.005 µM)?
Its relative viability is 0.449.

What about the relative viability ([3]; first compound 0.01581 µM) of the same cell line?
Its relative viability is 0.32.

And the relative viability ([3]; first compound 0.05 µM)?
The relative viability was 0.583.

What about the relative viability ([3]; first compound 0.1581 µM) of the same cell line?
Its relative viability is 0.36.

And the relative viability ([3]; first compound 0.5 µM)?
The relative viability was 0.539.

What about the relative viability ([4]; first compound 0.005 µM) of the same cell line?
The relative viability was 0.439.

What about the relative viability ([4]; first compound 0.01581 µM) of the same cell line?
Its relative viability is 0.416.

And the relative viability ([4]; first compound 0.05 µM)?
Its relative viability is 0.425.

And the relative viability ([4]; first compound 0.1581 µM)?
The relative viability was 0.478.

And the relative viability ([4]; first compound 0.5 µM)?
Its relative viability is 0.399.
